Source: patent US10472344B2, “Factor XIa inhibitors” (MERCK SHARP & DOHME CORP., priority 2015, dated 2019)

Tests used:
[1] = biological target: purified Human plasma kallikrein (Homo sapiens (Human), UniProt P03952); assay: Kallikrein Assay; assay type: biochemical; conditions: fluorogenic substrate Acetyl-K-P-R-AFC, 0.5 nM enzyme, pH 7.4; Ki from IC50 by Cheng Prusoff
Description: (§1) The effectiveness of a compound of the present invention as an inhibitor of Kallikrein can be determined using a relevant purified serine protease, and an appropriate synthetic substrate. The rate of hydrolysis of the chromogenic or fluorogenic substrate by the relevant serine protease was measured both in the absence and presence of compounds of the present invention. Assays were conducted at room temperature or at 37° C. […] A decrease in the rate of fluorescence change in the presence of inhibitor is indicative of enzyme inhibition. Such methods are known to one skilled in the art. The results of this assay are expressed as the inhibitory constant, Ki.
Kallikrein determinations were made in 50 mM HEPES buffer at pH 7.4 containing 150 mM NaCl, 5 mM CaCl2, and 0.1% PEG 8000 (polyethylene glycol; Fisher Scientific). Determinations were made using purified Human plasma kallikrein at a final concentration of 0.5 nM (Enzyme Research Laboratories) and the synthetic substrate, Acetyl-K-P-R-AFC (Sigma #C6608) at a concentration of […].
Activity assays were performed by diluting a stock solution of substrate at least tenfold to a final concentration≤0.2 Km into a solution containing enzyme or enzyme equilibrated with inhibitor. Times required to achieve equilibration between enzyme and inhibitor were determined in control experiments. The reactions were performed under linear progress curve conditions and fluorescence increase measured at 405 Ex/510 Em nm. Values were converted to percent inhibition of the control reaction (after subtracting 100% Inhibition value). IC50 was determined by inflection point from a four parameter logistic curve fit. Ki was calculated using the Cheng Prusoff equation, Ki=IC50/(1+([S]/Km)).

[2] = biological target: purified human Factor XIa (Homo sapiens (Human), UniProt P03951); assay: Factor XIa Assay; assay type: biochemical; conditions: fluorogenic substrate Z-Gly-Pro-Arg-AFC, 40 pM enzyme, pH 7.4; read-out: Human FXIa Ki
Description: as §1, with “Coagulation Factor XIa” for “Kallikrein”
Factor XIa determinations were made in 50 mM HEPES buffer at pH 7.4 containing 150 mM NaCl, 5 mM CaCl2, and 0.1% PEG 8000 (polyethylene glycol; JT Baker or Fisher Scientific). Determinations were made using purified human Factor XIa at a final concentration of 40 pM (Sekisui Diagnostics) and he synthetic substrate, Z-Gly-Pro-Arg-AFC, TFA salt (Sigma #C0980) at a concentration of […].
Activity assays were performed by diluting a stock solution of substrate at least tenfold to a final concentration ≤0.1 Km into a solution containing enzyme or enzyme equilibrated with inhibitor. Times required to achieve equilibration between enzyme and inhibitor were determined in control experiments. Initial velocities of product formation in the absence (V0) or presence of inhibitor (V1) were measured. Assuming competitive inhibition, and that unity is negligible compared Km/[S], [I]/e, and [I]/e (where [S], [I], and e respectively represent the total concentrations, of substrate, inhibitor and enzyme), the equilibrium constant (Ki) for dissociation of the inhibitor from the enzyme can be obtained from the dependence of V0/Vi on [I] shown in the following equation. V0/Vi=1+[I]/Ki

Chain of purified Human plasma kallikrein (P03952 391-638): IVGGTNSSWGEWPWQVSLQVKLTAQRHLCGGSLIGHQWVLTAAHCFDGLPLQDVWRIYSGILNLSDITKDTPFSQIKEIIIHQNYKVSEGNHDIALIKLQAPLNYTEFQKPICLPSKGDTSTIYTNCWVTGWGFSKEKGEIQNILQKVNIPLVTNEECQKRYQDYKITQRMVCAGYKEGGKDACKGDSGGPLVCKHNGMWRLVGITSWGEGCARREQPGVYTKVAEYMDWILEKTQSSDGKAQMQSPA
Chain of purified Human plasma kallikrein (P03952 20-390 partner): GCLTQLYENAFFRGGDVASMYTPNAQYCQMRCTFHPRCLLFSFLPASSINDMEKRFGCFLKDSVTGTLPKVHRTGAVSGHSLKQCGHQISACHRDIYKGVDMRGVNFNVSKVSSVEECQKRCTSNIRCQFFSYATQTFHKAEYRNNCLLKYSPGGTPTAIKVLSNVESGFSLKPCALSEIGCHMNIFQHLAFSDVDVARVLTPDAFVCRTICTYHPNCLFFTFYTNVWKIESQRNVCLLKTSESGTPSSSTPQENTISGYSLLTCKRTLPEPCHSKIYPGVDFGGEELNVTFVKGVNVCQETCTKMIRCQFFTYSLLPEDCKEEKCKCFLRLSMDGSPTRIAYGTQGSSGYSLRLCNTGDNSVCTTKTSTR
Chain of purified human Factor XIa (P03951 388-625): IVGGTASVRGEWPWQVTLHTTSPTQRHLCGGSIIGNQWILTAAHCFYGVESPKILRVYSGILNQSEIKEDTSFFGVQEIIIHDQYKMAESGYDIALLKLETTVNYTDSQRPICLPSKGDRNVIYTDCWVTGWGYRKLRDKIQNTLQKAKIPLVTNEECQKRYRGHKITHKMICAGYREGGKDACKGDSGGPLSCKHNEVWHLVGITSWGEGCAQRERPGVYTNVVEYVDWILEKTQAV
Chain of purified human Factor XIa (P03951 19-387 partner): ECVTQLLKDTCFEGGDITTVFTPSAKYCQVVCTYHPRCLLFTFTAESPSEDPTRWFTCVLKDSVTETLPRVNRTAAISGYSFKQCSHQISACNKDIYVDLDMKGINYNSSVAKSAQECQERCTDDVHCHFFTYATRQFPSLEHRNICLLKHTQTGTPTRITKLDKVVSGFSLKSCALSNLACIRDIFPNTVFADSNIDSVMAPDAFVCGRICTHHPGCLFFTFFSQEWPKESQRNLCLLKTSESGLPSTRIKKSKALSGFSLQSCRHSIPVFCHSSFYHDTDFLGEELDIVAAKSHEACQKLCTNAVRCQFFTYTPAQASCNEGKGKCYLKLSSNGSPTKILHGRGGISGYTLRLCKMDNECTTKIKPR

| Structure (SMILES) | Ki [1] [nM] | Ki [2] [nM] |
| --- | --- | --- |
| COC(=O)Nc1cccc(C(=O)NC(Cc2ccccc2)c2ccc(-c3cc(Cl)ccc3-n3cnnn3)c[n+]2[O-])c1 (stereo not drawn) [Example 3] |  | 144 |
| COCC(=O)Nc1ccc(C(=O)N[C@@H](Cc2ccccc2)c2ccc(-c3cc(Cl)ccc3-n3cnnn3)c[n+]2[O-])cc1 [Example 7] | 516 | 20 |
| O=C(O)c1ccc(C(=O)NC(Cc2ccccc2)c2ccc(-c3cc(Cl)ccc3-n3cnnn3)c[n+]2[O-])cc1 (stereo not drawn) [Example 5] |  | 83 |

The next compounds have a lower Ki [2] than those just listed; values first:

| Ki [1] [nM] | Ki [2] [nM] | Structure (SMILES) |
| --- | --- | --- |
| 219 | 6.9 | O=C(O)c1ccc(C(=O)N[C@@H](Cc2ccccc2)c2ccc(-c3cc(Cl)ccc3-n3cnnn3)c[n+]2[O-])s1 [Example 6] |
| 105 | 3.6 | COC(=O)Nc1ccc(C(=O)N[C@@H](Cc2ccccc2)c2ccc(-c3cc(Cl)ccc3-n3cnnn3)c[n+]2[O-])cc1 [Example 2, (S)-5-(5-chloro-2-(1H-tetrazol-1-yl)phenyl)-2-(1-(4-((methoxycarbonyl)amino)benzamido)-2-phenylethyl)pyridine 1-oxide] |
| 36 | 1.3 | NC(=O)c1ccc(C(=O)N[C@@H](Cc2ccccc2)c2ccc(-c3cc(Cl)ccc3-n3cnnn3)c[n+]2[O-])s1 [Example 4] |
| 25 | 0.9 | Nc1n[nH]c2cc(C(=O)N[C@@H](Cc3ccccc3)c3ccc(-c4cc(Cl)ccc4-n4cnnn4)c[n+]3[O-])ccc12 [Example 1, (S)-2-(1-(3-AMMONIO-1H-INDAZOLE-6-CARBOXAMIDO)-2-PHENYLETHYL)-5-(5-CHLORO-2-(1H-TETRAZOL-1-YL)PHENYL)PYRIDINE 1-OXIDE 2,2,2-TRIFLUOROACETATE] |
